One series deals with P. acnes (ATCC 6919). Kind of series: In vitro phototoxicity towards Propionibacterium acnes. The note with it: 2 μM, 30 min incubation, irradiated with 10 J/cm^2. Format: cell-based. On the procedure:
Phototoxicity towards bacteria was evaluated in vitro against P. acnes (ATCC® 6919—Remel, Lenexa, Kans., USA) using light with the appropriate wavelength. P. acnes bacteria was cultured in Reinforced Clostridial Medium (Oxoid, Basingstok, UK) under anaerobic atmosphere at 37° C. Anaerobic growth conditions were obtained using an anaerobic jar with a sachet for anaerobic conditions generation (Anaerocult A, Merck, Darmstadt, Germany). P. acnes suspension was diluted with culture medium to an optical density at 620 nm of 1.3, corresponding to approximately […] CFU/ml (colony-forming units per milliliter). The diluted suspension was centrifuged at 13000 rpm for 10 minutes, and re-suspended in PBS. Test compound stock solutions were dissolved in PEG400:DMSO ([…] 400:dimethyl sulfoxide) (55:45) and were diluted to the appropriate concentrations with PBS. The incubation of the test compounds with P. acnes was performed in DB Falcon black 96-well plates with clear flat-bottom (Franklin Lakes, N.J., USA), in the absence of light, during 30 minutes. […] After the incubation period, the viability of P. acnes was evaluated. […] The phototoxicity was measured according to the description in the Materials and Methods section. […]

A short description of series [1]: Skin permeation: depth by confocal fluorescence microscopy. Type of series: in vitro ADME, pig. Particulars: in 90 minutes, topical formulation. On the procedure:
Skin permeation was evaluated using a topical formulation containing benzyl alcohol (23%), Kolliphor EL (17%), Transcutol (50%) and water (10%). The photosensitizer added to this formulation corresponded to 1.85% of the mass before its addition, and the gelling agent (Aerosil 200) added corresponded to 5% of the mass before its addition. The photosensitizer was first dissolved in Transcutol and exposed to 3 min of vortex and 5 min of ultrasounds. A mixture of benzyl alcohol and Kolliphor EL was then added. Immediately after, it was mixed in an IKA MIXER at 200 rpm for 5 min and water was added drop-by-drop for 10 min. Finally, the gelling agent, Aerosil 200, was mixed in and the microemulsion gel was obtained. Skin permeation studies were performed in pig skin using samples collected from 5 months old pigs. The hair was removed as well as the underlying fatty layer, before the permeation studies.
This example describes the permeation of carboxamide bacteriochlorin with formula IX in pig skin. The topical formulation and the animal model were described in the Materials and Methods section. The permeation was assessed both in terms of the amount of photosensitizer in the skin after designated times of contact between the topical formulation and the skin (incubation time) and in terms of the depth of the permeation in the skin. […]

Regarding `CNC(=O)c1c2nc(c(-c3c(F)cccc3F)c3ccc(cc4nc(c(-c5c(F)cccc5F)c5ccc1[nH]5)CC4)[nH]3)CC2` [formula IX, 5-methylcarboxamide-10,20-bis-(2,6-difluorophenyl)bacteriochlorin], the “log CFU P. Acnes (reduction of bacterial CFU, orders of magnitude)” value in the series with P. acnes (ATCC 6919) was 9 log CFU. For the same molecule, the “depth of penetration in the skin” value in series [1] amounted to 40 μm.

These data come from patent publication US10450322B2, “Low molecular weight derivatives of carboxamide halogenated porphyrins, namely chlorins and bacteriochlorins, and their applications thereof” (LUZITIN, S.A., priority 2015, dated 2019).
